# Data reported in paper PMC12892976, “Alkylation-based optimization of antifungal FPPS inhibitors yields a potent, broad-spectrum lipophilic zoledronate derivative” (mBio, 2025).
# Legend:
# Aspergillus fumigatus [1] = assay: checkerboard drug interaction (FICI, MICc); type: cell-based; conditions: Aspergillus fumigatus;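 note: simplified diagonal checkerboard screen pairing antifungals with FPPS inhibitors against Aspergillus fumigatus, with FICI calculated under the Loewe additivity model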
# Protocol: (§1) Drug interactions between antifungals and FPPS inhibitors were investigated using a simplified checkerboard diagonal screening method ([45]). […] FICIs were determined according to the Loewe additivity model ([17]).
# eight fungal species = assay: checkerboard interaction with azoles, summary across the eight species; type: cell-based
# Text: Synergy between lipophilic FPPS inhibitors and azole antifungals was investigated by determining the fractional inhibitory concentration index (FICI) (Fig. 2; Table S1 Fig. S1) ([17]). […]. Derivatives PLA9 and 11, and PDA9, 11, and 12 antagonized azoles in C. albicans, C. neoformans, and C. deuterogattii, yet were largely synergistic in C. glabrata and S. cerevisiae. […].
# Cryptococcus neoformans = assay: MIC/MFC broth microdilution (CLSI);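 note: susceptibility testing followed the CLSI M27-Ed4 broth microdilution document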
# Protocol: (§2) Antifungal susceptibility was determined by broth microdilution according to the CLSI guidelines described in M27-Ed4 ([16]). […] MFC was determined by back-plating drug-treated cultures from MIC broths onto SDA plates. The MFC was defined as the lowest concentration from which no colonies could be cultured.
# Aspergillus fumigatus [2] = assay: MIC/MFC broth microdilution (CLSI); conditions: ATCC204305
# Protocol: as §2
# Candida glabrata = assay: checkerboard drug interaction (FICI, MICc); type: cell-based; conditions: for INH FD (MIC-MICc fold decrease): fold decrease of inhibitor MIC;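 for all read-outs here: simplified diagonal checkerboard screen pairing antifungals with FPPS inhibitors, FICI calculated under the Loewe additivity model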
# Protocol: as §1
# Candida albicans = assay: checkerboard drug interaction (FICI, MICc); type: cell-based; conditions: for INH FD (MIC-MICc fold decrease): fold decrease of inhibitor MIC;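 for all read-outs here: antifungal plus FPPS inhibitor combinations on Candida albicans tested by a simplified diagonal checkerboard screen, with FICI calculated under the Loewe additivity model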
# Protocol: as §1
# Aspergillus flavus = assay: MIC/MFC broth microdilution (CLSI); conditions: ATCC204304
# Protocol: as §2
# Saccharomyces cerevisiae = assay: MIC/MFC broth microdilution (CLSI); type: cell-based; conditions: Saccharomyces cerevisiae S288c
# Protocol: as §2
# [3] = C. glabrata, FLC:INH combination
# [4] = C. glabrata, ITR:INH combination
# [5] = C. glabrata, KET:INH combination
# [6] = C. albicans, FLC:INH combination
# [7] = C. albicans, ITR:INH combination
# [8] = C. albicans, KET:INH combination
smiles,measurement,setting,value
"O=P(O)(O)C(O)(Cn1ccnc1)P(=O)(O)O [ZOL, zoledronate]",FICI,Aspergillus fumigatus [1]; with ITR,0.51
same,FICI,Aspergillus fumigatus [1]; with KET,0.75
same,effect on azole MIC in combination,eight fungal species; across all species tested,consistently reduced the MIC of the azole
same,antagonism with azole drugs,eight fungal species; any of the azole drugs in any species tested,no antagonism
same,GM fungal MICc,eight fungal species; geometric mean MIC in combination with azoles,14.3
same,MFC,Cryptococcus neoformans; Cryptococcus neoformans,> 128 µg/mL
same,MIC,Cryptococcus neoformans; Cryptococcus neoformans,32 µg/mL
same,MIC / MEC,Cryptococcus neoformans; Cryptococcus neoformans H99,32 µg/mL
same,MFC,Aspergillus fumigatus [2],> 128 µg/mL
same,MIC,Aspergillus fumigatus [2],> 128 µg/mL
same,MIC / MEC,Aspergillus fumigatus [2],>256 µg/mL
same,FICI,Candida glabrata; 5FC:ZOL,0.63
same,FICI,Candida glabrata; AMB:ZOL,0.63
same,FICI,Candida glabrata; [3],0.09
same,INH MICc,"Candida glabrata; C. glabrata, FLC:INH combination, MIC of the inhibitor in combination with FLC",1
same,FLC FD (MIC-MICc fold decrease),"Candida glabrata; C. glabrata, FLC:INH combination, fold decrease of FLC MIC",16
same,INH FD (MIC-MICc fold decrease),Candida glabrata; [3],8
same,FICI,Candida glabrata; [4],0.16
same,INH MICc,"Candida glabrata; C. glabrata, ITR:INH combination, MIC of the inhibitor in combination with ITR",1
same,ITR FD (MIC-MICc fold decrease),"Candida glabrata; C. glabrata, ITR:INH combination, fold decrease of ITR MIC",8
same,INH FD (MIC-MICc fold decrease),Candida glabrata; [4],8
same,FICI,Candida glabrata; [5],0.31
same,INH MICc,"Candida glabrata; C. glabrata, KET:INH combination, MIC of the inhibitor in combination with KET",2
same,KET FD (MIC-MICc fold decrease),"Candida glabrata; C. glabrata, KET:INH combination, fold decrease of KET MIC",4
same,INH FD (MIC-MICc fold decrease),Candida glabrata; [5],4
same,FICI,Candida glabrata; CAS:ZOL,2.05
same,FICI,Candida glabrata; FLC:ZOL,0.09
same,FICI,Candida glabrata; ITR:ZOL,0.16
same,FICI,Candida glabrata; KET:ZOL,0.31
same,FICI,Candida glabrata; VOR:ZOL,0.38
same,bisphosphonate MICc,Candida glabrata; ZOL with 5FC,1
same,bisphosphonate MICc,Candida glabrata; ZOL with AMB,1
same,bisphosphonate MICc,Candida glabrata; ZOL with CAS,1
same,bisphosphonate MICc,Candida glabrata; ZOL with FLC,1
same,bisphosphonate MICc,Candida glabrata; ZOL with ITR,1
same,bisphosphonate MICc,Candida glabrata; ZOL with KET,2
same,bisphosphonate MICc,Candida glabrata; ZOL with VOR,1
same,FICI,"Candida glabrata; with FLC, Candida glabrata",0.09
same,FICI,"Candida glabrata; with ITR, Candida glabrata",0.16
same,FICI,"Candida glabrata; with KET, Candida glabrata",0.31
same,FICI,Candida albicans; 5FC:ZOL,1.13
same,FICI,Candida albicans; AMB:ZOL,1.25
same,FICI,Candida albicans; [6],0.53
same,INH MICc,"Candida albicans; C. albicans, FLC:INH combination, MIC of the inhibitor in combination with FLC",8
same,FLC FD (MIC-MICc fold decrease),"Candida albicans; C. albicans, FLC:INH combination, fold decrease of FLC MIC",2
same,INH FD (MIC-MICc fold decrease),Candida albicans; [6],32
same,FICI,Candida albicans; [7],1.13
same,INH MICc,"Candida albicans; C. albicans, ITR:INH combination, MIC of the inhibitor in combination with ITR",32
same,ITR FD (MIC-MICc fold decrease),"Candida albicans; C. albicans, ITR:INH combination, fold decrease of ITR MIC",1
same,INH FD (MIC-MICc fold decrease),Candida albicans; [7],8
same,FICI,Candida albicans; [8],1.13
same,INH MICc,"Candida albicans; C. albicans, KET:INH combination, MIC of the inhibitor in combination with KET",32
same,KET FD (MIC-MICc fold decrease),"Candida albicans; C. albicans, KET:INH combination, fold decrease of KET MIC",1
same,INH FD (MIC-MICc fold decrease),Candida albicans; [8],8
same,FICI,Candida albicans; CAS:ZOL,2.17
same,FICI,Candida albicans; FLC:ZOL,0.53
same,FICI,Candida albicans; ITR:ZOL,1.13
same,FICI,Candida albicans; KET:ZOL,1.13
same,FICI,Candida albicans; VOR:ZOL,1.46
same,bisphosphonate MICc,Candida albicans; ZOL with 5FC,16
same,bisphosphonate MICc,Candida albicans; ZOL with AMB,32
same,bisphosphonate MICc,Candida albicans; ZOL with CAS,32
same,bisphosphonate MICc,Candida albicans; ZOL with FLC,8
same,bisphosphonate MICc,Candida albicans; ZOL with ITR,32
same,bisphosphonate MICc,Candida albicans; ZOL with KET,32
same,bisphosphonate MICc,Candida albicans; ZOL with VOR,64
same,FICI,"Candida albicans; with FLC, Candida albicans",0.53
same,FICI,"Candida albicans; with ITR, Candida albicans",1.13
same,FICI,"Candida albicans; with KET, Candida albicans",1.13
same,MFC,Aspergillus flavus,> 128 µg/mL
same,MIC,Aspergillus flavus,> 128 µg/mL
same,MIC / MEC,Aspergillus flavus,>256 µg/mL
same,MFC,Saccharomyces cerevisiae,> 128 µg/mL
same,MIC,Saccharomyces cerevisiae,> 128 µg/mL
same,MIC / MEC,Saccharomyces cerevisiae,256 µg/mL
